Legend:
[1] = target: T1, lecithin:cholesterol acyl transferase (LCAT) (Homo sapiens, UniProt P04180); experiment: Assay of LCAT activity; format: biochemical; conditions: 20 μg/ml peptide, egg PC-cholesterol vesicles
T1 construct: LCAT was isolated from fresh normolipidemic plasma by the method of Albers et al; from tissue; host or cells: fresh normolipidemic plasma
T1 sequence (P04180 25-440): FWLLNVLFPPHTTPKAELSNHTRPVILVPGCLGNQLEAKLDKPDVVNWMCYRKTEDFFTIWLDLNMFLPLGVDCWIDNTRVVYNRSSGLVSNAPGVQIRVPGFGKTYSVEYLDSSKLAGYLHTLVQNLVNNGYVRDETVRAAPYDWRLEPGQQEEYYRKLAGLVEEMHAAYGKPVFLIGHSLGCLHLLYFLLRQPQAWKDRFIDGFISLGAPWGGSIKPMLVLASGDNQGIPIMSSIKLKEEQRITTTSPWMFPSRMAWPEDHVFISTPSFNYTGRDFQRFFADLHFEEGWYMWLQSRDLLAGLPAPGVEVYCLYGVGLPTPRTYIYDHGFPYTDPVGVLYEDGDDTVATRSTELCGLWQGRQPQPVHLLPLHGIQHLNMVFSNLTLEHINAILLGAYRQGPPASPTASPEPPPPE
Procedure: LCAT was isolated from fresh normolipidemic plasma by the method of Albers et al. (1986) Methods Enzymol. 129: 763–783, with some modifications. The density of the plasma was adjusted to 1.21 g/ml and it was centrifuged at 175,000 g for 24 h. The LCAT containing fraction was subjected to Affi-Gel Blue chromatography followed by DE-52 chromatography. LCAT was eluted from the DE-52 column using a 75 to 200 mM NaCl gradient in Tris buffer (10 mM, pH 7.6).
The substrate was prepared by sonicating egg PC/cholesterol (90:20 mol/mol) containing trace amounts of 7α-^3H cholesterol in a Branson 250 sonifier for 12 mins to obtain small unilamellar vesicles. The substrate (50 μl) was incubated with 5 μg of peptide or human apo A-I and 50 μl of BSA (40 μg/ml) for 1 h at 37° C. The total volume was brought up to 150 μl. After incubating for 1 h, 100 μl of LCAT was added and incubated for 1 h at 37° C. and the reaction was quenched by spotting 10 μl on a silica strip. Cholesterol and cholesteryl ester were separated by thin layer chromatography of the silica strip in hexane:chloroform (2:1 v/v) mixture. […] The positions of the standards were used to cut the strip into two and the two parts were counted in scintillation fluid in a Packard Tri Carb 4530. […] The activation of LCAT by the peptides is expressed as a percentage of the total activation by apo A-I .

[2] = Circular dichroism, percent helicity; format: physicochemical
Procedure: Briefly, spectra were obtained using a cell with a 0.1 cm path length and measurements were taken every nm from 260 nm to 190 nm at 25° C. All the CD spectra were signal averaged by adding four scans, base line corrected and smoothed. Peptide solutions in PBS, pH 7.4, were used at a concentration of 11 μM. Peptide-DMPC complexes (1:20 mol:mol) were used to determine the effect of lipid binding on the helicity of these peptides. These complexes were prepared by adding the appropriate volume of peptide solution to DMPC multilamellar vesicles. DMPC multilamellar vesicles were prepared as follows: A known amount of lipid was dissolved in ethanol and the solvent was removed by evaporating slowly under a thin stream of nitrogen. Residual solvent was removed by storing the lipid film under vacuum overnight. An appropriate volume of PBS, pH 7.4 was added to the thin lipid film to give the required final concentration of DMPC.

[3] = Survival, toxicity, body and liver weights after 16 weeks of injection
Procedure: Mice were acquired at six weeks of age, and randomized into groups of 20, except that a negative control group of 10 received no treatments and was given standard rodent chow. At eight weeks of age, the treatment groups were placed on a modified Thomas-Hartroft atherogenic diet (#TD88051; Teklad, Madison, Wis.), and injections were begun. […] Animals were injected intraperitoneally daily for 16 weeks, including weekends and holidays.
At the end of the study (week 16), at the last bleeding, the heart and the liver were excised. […] The livers were removed and weighed.

human artery wall cells = experiment: Lipoproteins from 5F-injected mice tested in human artery wall cell cocultures (lipid hydroperoxides, monocyte chemotactic activity); format: cell-based; conditions: 20 μg/mouse/day
Procedure: Cocultures of human artery wall cells, monocyte isolation, isolation of lipoproteins by ultracentrifugation from the plasma of normal human donors or from mouse plasma by FPLC, and determination of lipid hydroperoxides and monocyte chemotactic activity were performed according to standard methods. All human subject participation was with informed consent approved by the UCLA Human Subjects Protection Committee. The protocol for testing mouse lipoproteins in the coculture was also performed as follows: Briefly, LDL and HDL were isolated by FPLC from mouse plasma from mice fed the atherogenic diet and injected with vehicle (PBS), or with peptide 5F at 20 μg/mouse/day. The cocultures were treated with human LDL at 200 μg/ml LDL protein, or mouse LDL at 200 μg/ml or with 200 μg/ml human LDL+human HDL at 350 μg/ml of HDL protein or mouse HDL at 300 μg/ml or with mouse HDL alone at 300 μg/ml. […] The supernatants were collected and analyzed for Auerbach lipid hydroperoxide equivalents.

[4] = test system: human artery wall cell cocultures; experiment: LDL-induced monocyte chemotactic activity with the homologous series of peptides (Example 3); format: cell-based; conditions: peptide at 100 μg/ml, LDL 250 μg protein/ml, 8 h
Procedure: Microtitre plates were treated with 0.1% gelatin at 37° C. overnight. HASMC were added at a confluent density of 1×10^5 cells/cm^2. […] HAEC were subsequently added at 2×10^5 cells/cm^2 and were allowed to grow, forming a complete monolayer of confluent HAEC in two days. In all experiments, HAEC and autologous HASMC (from the same donor) were used at passage levels of four to six. […] The cocultures were treated with native LDL(250 μg protein/ml) or presence of HDL (350 μg protein/ml) or peptides for 8 h.

[5] = after 16 weeks, atherogenic diet, daily i.p., mean ± SEM

Question: With “Ac-DWLKAFYDKVFEKFKEFF-NH2 [Peptide 5F, Ac-D-W-L-K-A-F-Y-D-K-V-F-E-K-F-K-E-F-F-NH2]” as the substance, how does the “LCAT activation relative to apo A-I (100%)” value [1] read?
Answer: 80 % of apo A-I

Question: What about the “Percent Helicity PBS” value ([2]; 11 μM peptide in PBS) of the same substance?
Answer: 55%

Question: And the “Percent Helicity DMPC” value ([2]; 11 μM peptide, Peptide: DMPC 1:20 (mol/mol))?
Answer: 76%

Question: What about the “Body Weight” value [3, 5] of the same substance?
Answer: 21.60 ± 0.28 g

Question: What about the “Liver Weight” value [3, 5] of the same substance?
Answer: 1.61 ± 0.04 g

Question: What about the “Liver: Body (percentage)” value [3, 5] of the same substance?
Answer: 7.46 ± 0.23%

Question: And the “mice died from unexplained causes” value ([3]; during the prolonged diet studies, groups of 20)?
Answer: one

Question: What about the “ability of HDL from injected mice to inhibit human LDL oxidation and LDL-induced monocyte chemotactic activity” value (human artery wall cells; mouse HDL 300 μg/ml with human LDL 200 μg/ml) of the same substance?
Answer: as effective in inhibiting human LDL oxidation and preventing LDL-induced monocyte chemotactic activity in the cocultures as was normal human HDL

Question: What about the “oxidation of, and monocyte chemotactic activity induced by, LDL from injected mice versus PBS” value (human artery wall cells; mouse LDL 200 μg/ml) of the same substance?
Answer: less readily oxidized and induced less monocyte chemotactic activity

Question: What about the “inhibition of LDL-induced monocyte chemotaxis” value [4] of the same substance?
Answer: significant and similar inhibition

Reference: patent publication US7144862B2, “Orally administered peptides to ameliorate atherosclerosis” (The Regents of the University of California, priority 2000, dated 2006)
